One may read the IC50 as the midpoint of a concentration-inhibition curve.

One experiment addresses FGFR1 (Homo sapiens, UniProt P11362). The experiment in a line: Enzyme inhibition activity, FGFR1. The experiment is classed as biochemical. As to the method: (§1) Operating as described above in the tests of inhibition activity on enzymes, or in an analogous way, the following data were obtained for 2-methyl-N-{4-[2-(methylamino)-2-oxoethyl]-1-oxo-2,9-dihydro-1H-beta-carbolin-6-yl}hexanamide (Compound XIIIh). The same compound was tested for cytotoxic activity on cells as described below.

A further experiment concerns the target T1, AUR2 (Homo sapiens, UniProt O14965).
T1 sequence (O14965 1-403): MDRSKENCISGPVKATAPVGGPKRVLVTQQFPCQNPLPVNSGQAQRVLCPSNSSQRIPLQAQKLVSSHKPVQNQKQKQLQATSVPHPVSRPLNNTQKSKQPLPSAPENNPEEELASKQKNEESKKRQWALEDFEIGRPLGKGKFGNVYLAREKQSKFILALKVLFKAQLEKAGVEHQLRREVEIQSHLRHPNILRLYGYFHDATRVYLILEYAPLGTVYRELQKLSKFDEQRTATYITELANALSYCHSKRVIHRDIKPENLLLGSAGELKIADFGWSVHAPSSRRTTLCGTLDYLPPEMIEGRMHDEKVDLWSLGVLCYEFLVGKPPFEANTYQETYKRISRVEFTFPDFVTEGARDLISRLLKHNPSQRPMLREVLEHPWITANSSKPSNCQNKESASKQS
Kind of experiment: Inhibition assay of Aurora-2 activity. Type of experiment: biochemical. The note with it: Enzyme AUR2. As to the method:
Inhibition assay of Aurora-2 activity
The inhibiting activity and the potency of selected compounds was determined through a method of assay based on the use of the streptavidin scintillation proximity assay beads (amershampharmacia biotech) run in a 96 well plates. At the end of the reaction, the biotinylated peptide substrate was captured with the beads and subsequently allowed to stratify using CsCl. When a radioactivity labeled phosphate moiety was transferred by the kinase to the beads-bound peptide, light emitted was measured in a scintillation counter.
The inhibition assay of Aurora-2 activity was performed in 96 wells plate according to the following protocol:
8 µM biotinylated peptide (4 repeats of LRRWSLG), 10 µM ATP (0.5 uCi P^33g-ATP), 10 nM Aurora2, 10 µM inhibitor in a final volume of 60 µl buffer (HEPES 50 mM pH 7.0, MgCl2 10 mM, 1 mM DTT, 0.125 mg/ml BSA, 3µM orthovanadate) were added to each well of a 96 U bottom well plate. After 30 minutes at room temperature incubation, reaction was stopped and biotinylated peptide captured by adding 100 µl of bead suspension.
100 µl of CsCl 7.5 M were added to each well and let stand one hour before radioactivity was counted in the Top-Count instrument.
Results: data were analyzed and expressed as % inhibition referred to total activity of enzyme (=100%). […]

The subject of another experiment is A2780. The experiment in a line: Cytotoxic activity on cells (cell proliferation, cellular ATP monitoring). Type of experiment: cell-based. The note with it: Homo sapiens; Cell Type A2780; concentration inhibiting cell proliferation by 50%; 72 hours treatment. As for the experimental part:
Exponentially growing cells A2780 were seeded and incubated at 37°C in a humidified 5% CO2 atmosphere. After 24 hours, scalar doses of test compound were added to the medium and cells were incubated for additional 72 hours.
At the end of treatment, cell proliferation was determined by a cellular ATP monitoring system which consists of a mixture of luciferase and luciferin, reconstituted in a lysis buffer; 100 µL/well of this solution were added to the cells. The plates were then shaken for 2 minutes in an orbital shaker and were read in a luminometer, with the signal linearly proportional to the cell number.

Another experiment addresses AUR1 (Homo sapiens, UniProt Q96GD4). The experiment in a line: Enzyme inhibition activity, AUR1. The experiment is classed as biochemical. As to the method:
as §1

The target of another experiment is VEGFR2 (Homo sapiens, UniProt P35968). Kind of experiment: Enzyme inhibition activity, VEGFR2. The experiment is classed as biochemical. As for the experimental part:
as §1

The target in another experiment is T2, PDK1 (Homo sapiens, UniProt O15530).
T2 sequence (O15530 1-556): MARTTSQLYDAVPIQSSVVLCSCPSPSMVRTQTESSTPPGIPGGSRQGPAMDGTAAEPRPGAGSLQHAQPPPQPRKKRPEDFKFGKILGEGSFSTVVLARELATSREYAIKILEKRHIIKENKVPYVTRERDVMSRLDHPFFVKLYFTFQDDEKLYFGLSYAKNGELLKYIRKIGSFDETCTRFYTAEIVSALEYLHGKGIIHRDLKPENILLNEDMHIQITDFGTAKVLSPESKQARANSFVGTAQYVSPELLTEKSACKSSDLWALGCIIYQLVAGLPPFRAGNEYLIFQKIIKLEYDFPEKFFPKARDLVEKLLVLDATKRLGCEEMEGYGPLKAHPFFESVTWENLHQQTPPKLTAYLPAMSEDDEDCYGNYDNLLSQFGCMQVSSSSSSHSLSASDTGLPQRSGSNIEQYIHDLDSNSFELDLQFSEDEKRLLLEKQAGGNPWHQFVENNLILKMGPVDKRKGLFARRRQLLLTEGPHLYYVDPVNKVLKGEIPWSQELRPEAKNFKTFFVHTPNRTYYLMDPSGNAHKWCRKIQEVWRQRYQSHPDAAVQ
The experiment in a line: Enzyme inhibition activity, PDK1. The experiment is classed as biochemical. As to the method:
as §1

For a further experiment, the target named is VEGFR3 (Homo sapiens, UniProt P35916). The experiment in a line: Enzyme inhibition activity, VEGFR3. Type of experiment: biochemical. As for the experimental part: as §1
Sequence of VEGFR3 (P35916 25-1363, species assumed): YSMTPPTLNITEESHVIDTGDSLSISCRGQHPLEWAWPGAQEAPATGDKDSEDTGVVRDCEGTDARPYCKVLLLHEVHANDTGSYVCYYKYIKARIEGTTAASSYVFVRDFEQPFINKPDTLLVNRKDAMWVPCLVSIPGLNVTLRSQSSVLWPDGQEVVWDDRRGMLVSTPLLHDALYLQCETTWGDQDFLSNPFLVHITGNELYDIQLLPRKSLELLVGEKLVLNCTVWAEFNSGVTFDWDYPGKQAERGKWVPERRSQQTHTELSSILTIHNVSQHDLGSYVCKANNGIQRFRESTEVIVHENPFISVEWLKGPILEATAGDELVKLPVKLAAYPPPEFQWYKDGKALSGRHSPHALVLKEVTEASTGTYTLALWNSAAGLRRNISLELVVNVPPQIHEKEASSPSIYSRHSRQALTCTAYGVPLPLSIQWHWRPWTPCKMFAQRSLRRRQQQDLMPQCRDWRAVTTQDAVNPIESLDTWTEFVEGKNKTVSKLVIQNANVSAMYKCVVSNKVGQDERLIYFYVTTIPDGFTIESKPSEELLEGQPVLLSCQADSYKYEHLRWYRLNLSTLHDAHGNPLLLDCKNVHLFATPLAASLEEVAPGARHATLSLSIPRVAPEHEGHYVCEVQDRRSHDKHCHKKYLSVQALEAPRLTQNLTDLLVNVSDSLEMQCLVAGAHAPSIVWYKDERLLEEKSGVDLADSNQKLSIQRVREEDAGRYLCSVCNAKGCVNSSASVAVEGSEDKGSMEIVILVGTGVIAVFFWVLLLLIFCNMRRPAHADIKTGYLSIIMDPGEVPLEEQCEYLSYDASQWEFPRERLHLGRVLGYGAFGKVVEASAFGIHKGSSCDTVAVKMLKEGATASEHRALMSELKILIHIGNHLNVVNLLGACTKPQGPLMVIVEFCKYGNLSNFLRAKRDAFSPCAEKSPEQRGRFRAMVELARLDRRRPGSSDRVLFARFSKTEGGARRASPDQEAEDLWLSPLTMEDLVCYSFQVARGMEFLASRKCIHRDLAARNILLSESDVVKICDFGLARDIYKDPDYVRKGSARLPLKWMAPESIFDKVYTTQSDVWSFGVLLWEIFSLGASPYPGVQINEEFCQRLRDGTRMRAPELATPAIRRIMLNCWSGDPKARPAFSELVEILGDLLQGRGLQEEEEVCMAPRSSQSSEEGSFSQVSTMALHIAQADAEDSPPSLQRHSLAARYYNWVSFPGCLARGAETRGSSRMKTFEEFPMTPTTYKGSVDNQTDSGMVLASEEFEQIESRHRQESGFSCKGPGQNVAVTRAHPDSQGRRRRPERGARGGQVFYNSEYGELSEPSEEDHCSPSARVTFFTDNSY
Another experiment concerns the target RET (Homo sapiens, UniProt P07949). Kind of experiment: Enzyme inhibition activity, RET. The experiment is classed as biochemical. As to the method: as §1
The target in a further experiment is T3, JAK3 (Homo sapiens, UniProt P52333).
T3 sequence (P52333 1-1124): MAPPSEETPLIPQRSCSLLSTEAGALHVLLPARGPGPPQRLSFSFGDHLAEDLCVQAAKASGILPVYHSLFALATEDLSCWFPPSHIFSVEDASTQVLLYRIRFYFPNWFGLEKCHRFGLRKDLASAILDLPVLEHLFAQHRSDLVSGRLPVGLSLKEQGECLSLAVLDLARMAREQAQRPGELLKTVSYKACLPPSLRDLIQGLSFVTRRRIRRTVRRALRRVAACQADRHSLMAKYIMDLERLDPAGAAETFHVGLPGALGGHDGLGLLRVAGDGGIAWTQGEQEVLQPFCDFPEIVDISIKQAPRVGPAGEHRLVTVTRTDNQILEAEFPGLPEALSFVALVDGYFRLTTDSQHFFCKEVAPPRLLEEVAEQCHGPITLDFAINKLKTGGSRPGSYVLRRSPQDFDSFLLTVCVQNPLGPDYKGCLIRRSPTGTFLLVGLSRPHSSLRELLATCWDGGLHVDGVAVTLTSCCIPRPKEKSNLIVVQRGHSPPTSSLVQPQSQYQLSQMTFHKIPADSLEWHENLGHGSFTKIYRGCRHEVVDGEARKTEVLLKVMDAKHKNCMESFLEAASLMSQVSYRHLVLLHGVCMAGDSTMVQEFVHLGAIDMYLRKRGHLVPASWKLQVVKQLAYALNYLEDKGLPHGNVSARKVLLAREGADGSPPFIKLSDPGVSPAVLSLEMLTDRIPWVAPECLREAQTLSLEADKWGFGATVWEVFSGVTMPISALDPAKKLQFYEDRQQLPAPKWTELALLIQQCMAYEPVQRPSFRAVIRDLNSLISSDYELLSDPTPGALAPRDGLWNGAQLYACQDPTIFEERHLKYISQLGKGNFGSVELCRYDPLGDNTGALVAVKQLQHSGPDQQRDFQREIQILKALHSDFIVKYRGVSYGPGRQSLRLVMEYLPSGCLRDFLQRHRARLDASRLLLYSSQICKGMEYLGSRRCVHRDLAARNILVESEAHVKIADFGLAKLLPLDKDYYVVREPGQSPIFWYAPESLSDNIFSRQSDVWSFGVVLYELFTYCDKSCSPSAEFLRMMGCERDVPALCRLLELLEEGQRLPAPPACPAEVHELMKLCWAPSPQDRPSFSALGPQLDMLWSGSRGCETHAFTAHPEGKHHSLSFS
Kind of experiment: Enzyme inhibition activity, JAK3. Type of experiment: biochemical. As to the method:
as §1

For the next experiment, the target named is PKAalpha (Homo sapiens, UniProt P17612). Kind of experiment: Enzyme inhibition activity, PKAalpha. The experiment is classed as biochemical. As to the method:
as §1

A further experiment addresses GSK3beta (Homo sapiens, UniProt P49841). Kind of experiment: Enzyme inhibition activity, GSK3beta. The experiment is classed as biochemical. As for the experimental part:
as §1

In a further experiment the target is T4, CDK2/CYCA (Homo sapiens, UniProt P24941).
T4 construct: made in house
Kind of experiment: Inhibition assay of Cdk2/Cyclin A activity. Type of experiment: biochemical. As to conditions: Enzyme CDK2/CYCA. As to the method: Inhibition assay of Cdk2/Cyclin A activity
1.5 µM histone H1 substrate, 25 µM ATP (0.2 µCi P33γ-ATP), 30 ng of baculovirus co-expressed Cdk2/Cyclin A, 10 µM inhibitor in a final volume of 100 µl buffer (TRIS HCl 10 mM pH 7.5, MgCl2 10 mM, 7.5 mM DTT) were added to each well of a 96 U bottom well plate. After 10 min at 37 °C incubation, reaction was stopped by 20 µl EDTA 120 mM.
100 µl were transferred from each well from the kinase reaction to MultiScreen plate, to allow substrate binding to phosphocellulose filter. Plates were then washed 3 times with 150 µl/well PBS Ca^++/Mg^++ free and filtered by MultiScreen filtration system.
Filters were allowed to dry at 37°C, then 100 µl/well scintillant were added and 33P labeled histone H1 was detected by radioactivity counting in the Top-Count instrument. Results: data were analyzed and expressed as % inhibition referred to total activity of enzyme (=100%).
All compounds showing inhibition ≥ 50 % were further analyzed in order to study and define potency (IC50) as well as the kinetic-profile of inhibitor through Ki calculation. IC50 determination: the protocol used was the same described above, where inhibitors were tested at different concentrations ranging from 0.0045 to 10 µM. […]

Structures are written as SMILES.

Sequence of AUR1 (Q96GD4 whole entry): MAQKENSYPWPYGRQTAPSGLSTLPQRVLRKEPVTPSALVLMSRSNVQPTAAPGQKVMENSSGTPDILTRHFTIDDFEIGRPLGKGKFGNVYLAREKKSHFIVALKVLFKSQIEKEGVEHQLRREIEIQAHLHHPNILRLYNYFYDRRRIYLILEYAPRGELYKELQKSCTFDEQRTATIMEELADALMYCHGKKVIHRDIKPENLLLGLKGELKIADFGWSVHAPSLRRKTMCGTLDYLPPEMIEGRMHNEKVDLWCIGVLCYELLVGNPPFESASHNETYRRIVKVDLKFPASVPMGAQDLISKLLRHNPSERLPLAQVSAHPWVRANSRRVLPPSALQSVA
Sequence of GSK3beta (P49841 whole entry, species assumed): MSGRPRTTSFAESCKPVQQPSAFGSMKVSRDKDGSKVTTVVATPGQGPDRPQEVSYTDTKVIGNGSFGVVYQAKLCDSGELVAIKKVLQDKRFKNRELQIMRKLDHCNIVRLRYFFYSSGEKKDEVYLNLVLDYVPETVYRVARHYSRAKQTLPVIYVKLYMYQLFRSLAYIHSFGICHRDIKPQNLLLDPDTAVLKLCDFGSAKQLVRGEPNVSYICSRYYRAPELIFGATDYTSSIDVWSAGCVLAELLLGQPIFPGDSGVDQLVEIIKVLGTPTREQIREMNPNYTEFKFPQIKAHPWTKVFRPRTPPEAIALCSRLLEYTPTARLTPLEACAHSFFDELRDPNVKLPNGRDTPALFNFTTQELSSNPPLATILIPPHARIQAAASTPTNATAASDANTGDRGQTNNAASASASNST
Sequence of RET (P07949 29-1114, species assumed): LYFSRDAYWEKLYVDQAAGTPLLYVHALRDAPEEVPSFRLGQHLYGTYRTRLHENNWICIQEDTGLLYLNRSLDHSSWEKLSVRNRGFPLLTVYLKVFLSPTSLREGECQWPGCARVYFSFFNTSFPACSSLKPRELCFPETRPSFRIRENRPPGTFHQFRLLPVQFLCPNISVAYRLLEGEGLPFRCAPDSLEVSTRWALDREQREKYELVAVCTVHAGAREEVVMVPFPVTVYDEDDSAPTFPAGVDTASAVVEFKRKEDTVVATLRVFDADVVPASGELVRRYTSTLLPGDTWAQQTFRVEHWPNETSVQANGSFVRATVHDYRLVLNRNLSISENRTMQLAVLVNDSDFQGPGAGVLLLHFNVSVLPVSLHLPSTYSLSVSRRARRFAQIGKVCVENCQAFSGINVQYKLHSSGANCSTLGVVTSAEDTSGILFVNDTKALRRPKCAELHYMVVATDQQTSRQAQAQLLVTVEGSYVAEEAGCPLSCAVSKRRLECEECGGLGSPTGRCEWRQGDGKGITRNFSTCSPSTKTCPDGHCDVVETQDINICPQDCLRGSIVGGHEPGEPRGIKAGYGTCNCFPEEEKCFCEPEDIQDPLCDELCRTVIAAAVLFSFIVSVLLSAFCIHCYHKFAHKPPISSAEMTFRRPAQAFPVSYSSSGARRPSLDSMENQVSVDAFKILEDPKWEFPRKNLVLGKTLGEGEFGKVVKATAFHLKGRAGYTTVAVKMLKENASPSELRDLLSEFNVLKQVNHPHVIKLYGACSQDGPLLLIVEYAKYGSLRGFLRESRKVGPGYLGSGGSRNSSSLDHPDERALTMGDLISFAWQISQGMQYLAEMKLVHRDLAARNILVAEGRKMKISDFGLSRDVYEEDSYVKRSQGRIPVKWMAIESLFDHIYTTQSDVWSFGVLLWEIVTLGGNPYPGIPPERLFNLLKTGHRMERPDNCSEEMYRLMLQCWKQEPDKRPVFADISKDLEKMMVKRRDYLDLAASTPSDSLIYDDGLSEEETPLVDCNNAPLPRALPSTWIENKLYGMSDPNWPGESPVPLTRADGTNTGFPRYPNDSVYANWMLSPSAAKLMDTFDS
Sequence of FGFR1 (P11362 22-822, species assumed): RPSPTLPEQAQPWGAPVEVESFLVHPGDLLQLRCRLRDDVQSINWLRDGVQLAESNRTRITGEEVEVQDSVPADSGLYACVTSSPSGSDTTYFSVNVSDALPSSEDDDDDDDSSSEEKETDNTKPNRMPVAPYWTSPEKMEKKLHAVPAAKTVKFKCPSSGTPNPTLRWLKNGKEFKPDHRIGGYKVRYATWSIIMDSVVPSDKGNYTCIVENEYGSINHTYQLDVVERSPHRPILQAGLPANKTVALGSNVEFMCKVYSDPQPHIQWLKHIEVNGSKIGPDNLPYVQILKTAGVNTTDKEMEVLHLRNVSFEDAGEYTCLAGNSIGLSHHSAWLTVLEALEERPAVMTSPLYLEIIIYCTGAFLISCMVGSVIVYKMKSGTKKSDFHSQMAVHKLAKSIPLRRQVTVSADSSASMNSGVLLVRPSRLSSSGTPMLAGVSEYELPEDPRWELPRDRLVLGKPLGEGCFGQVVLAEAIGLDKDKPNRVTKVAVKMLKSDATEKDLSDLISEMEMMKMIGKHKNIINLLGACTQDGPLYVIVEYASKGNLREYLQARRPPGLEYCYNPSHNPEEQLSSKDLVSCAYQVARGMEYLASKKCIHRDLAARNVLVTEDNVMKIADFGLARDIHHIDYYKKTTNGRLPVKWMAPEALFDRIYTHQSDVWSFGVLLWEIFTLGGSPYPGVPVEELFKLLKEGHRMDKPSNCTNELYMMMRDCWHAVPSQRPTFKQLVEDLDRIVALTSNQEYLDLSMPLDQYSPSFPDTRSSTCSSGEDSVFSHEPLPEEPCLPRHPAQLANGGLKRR

Consider `CCCCC(C)C(=O)Nc1ccc2[nH]c3c(=O)[nH]cc(CC(=O)NC)c3c2c1` (stereo not drawn) [Compound XIIIh, 2-Methyl-N-{4-[2-(methylamino)-2-oxoethyl]-1-oxo-2,9-dihydro-1H-beta-carbolin-6-yl}hexanamide], for which the IC50 at FGFR1 stood at 2520 nM; against AUR2, 51 nM; with A2780 it was 3610 nM; on AUR1 it was 423 nM; against VEGFR2 it was 1920 nM; against PDK1, 1300 nM. The IC50 on VEGFR3 turned out to be 594 nM; at RET it was 1080 nM; on JAK3, 1760 nM; against PKAalpha it was 866 nM; against GSK3beta, 1890 nM; at CDK2/CYCA, 1700 nM.

Values taken from EP2003129B1, “1H-Pyrido[3,4-B]indol-1-one and 2,3,4,9-Tetrahydro-1H-Beta-Carbolin-1-one Derivatives” (Nerviano Medical Sciences S.r.l., priority 2007, dated 2008).
